# Values of other authors in US7820159B2, “MN/CA IX and EGFR pathway inhibition” (Instiute of Virology of the Slovak Academy of Sciences, priority 2006, dated 2010).
# Legend:
# MEK = settings: non-ATP competitive allosteric inhibitors, unlike the majority of ATP-competitive analogs
# tumor xenograft models = settings: in vivo
# [1] = not given; remark: listed apart in the source
# [2] = patients
# MN = target: T1, MN (Homo sapiens, UniProt Q16790); settings: patients
# T1 construct: Phase I and II clinical trials of an MN-specific drug, Rencarex®; host or cells: endogenous MN/CA IX in human trial patients
Compound,Selectivity for MEK in biochemical assays (MEK),Anti-tumor activity in tumor xenograft models (tumor xenograft models),Solubility compared with CI-1040,Metabolic stability compared with CI-1040 [1],Drug-related side effects in Phase I and II clinical trials [2],Tolerability in Phase I and II clinical trials (MN)
Cn1cnc2c(F)c(Nc3ccc(Br)cc3Cl)c(C(=O)NOCCO)cc21 [ARRY-142886],high selectivity for MEK,potent anti-tumor activity,–,–,–,–
O=C(NOC[C@H](O)CO)c1ccc(F)c(F)c1Nc1ccc(I)cc1F [PD-0325901],–,potent anti-tumor activity,more soluble,improved,–,–
Rencarex®: an MN-specific drug tested in Phase I and II clinical trials,–,–,–,–,no serious drug-related side effects,well-tolerated
